This note sets out measurements from ChEMBL document CHEMBL1201862, “PubChem BioAssay data set” (2004).

Holding throughout (assay): growth of human tumour cells (NCI), 48 h
The test system of assay [1] is SW-620.
Assay [2] deals with TK-10.
The subject of assay [3] is HT-29.
Assay [4] concerns 786-0.
Assay [5] deals with KM12.
Assay [6] concerns OVCAR-4.
The subject of assay [7] is HL-60.
The subject of assay [8] is SF-539.
Assay [9] concerns SK-OV-3.
The subject of assay [10] is SR.
Assay [11] relates to DU-145.
Assay [12] has as its system U-251.
In assay [13] the test system is SNB-19.
Assay [14] has as its system ACHN.
The test system of assay [15] is SNB-75.
Assay [16] has as its system NCI-H522.
Assay [17] has as its system COLO 205.
Assay [18] relates to CAKI-1.
For assay [19], the system named is OVCAR-5.
The test system of assay [20] is OVCAR-8.

The structures appear in SMILES notation.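 Where inhibition never reached the appropriate level, the endpoint shown equals the highest concentration tested. Otherwise, values were interpolated linearly from a five-concentration, 48-hour dose response in 96-well plates. GI50 = concentration required for 50% inhibition of growth.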 The source made the active and inactive calls. No stated cut-off is given here; in the data, active = GI50 up to about 1.1 µM and inactive = higher.

As to `NC(=S)NNCC(=O)CC(O)(C(F)(F)F)C(F)(F)Cl` (stereo not given), the GI50 in assay [1], in [2], in assay [3], in assay [4], in assay [5] and in assay [6] was > 100 µM (inactive) throughout. In addition, the GI50 in [7] was 97.3 µM (inactive); in [8], > 100 µM (inactive); in assay [9], > 100 µM (inactive); in assay [10], > 100 µM (inactive); in [11], > 100 µM (inactive); in [12], > 100 µM (inactive). Also, the GI50 in [13] is > 100 µM (inactive); in assay [14], 54.5 µM (inactive); in assay [15], 29.6 µM (inactive); in assay [16] it was > 100 µM (inactive); in assay [17] it was > 100 µM (inactive); in [18], > 100 µM (inactive). Moreover, the GI50 in assay [19] and in [20] was > 100 µM (inactive) in each case.
For `COc1c(-c2nc3ccc(N4CCN(C)CC4)cc3[nH]2)cc(OC)c2[nH]c(COC(C)=O)nc12`, the GI50 was 40.2 µM (inactive) in assay [1]; 71.4 µM (inactive) in assay [2]; 36.7 µM (inactive) in assay [3]; 36.6 µM (inactive) in [4]; 31.3 µM (inactive) in [5]; 29.8 µM (inactive) in assay [6]. Besides, the GI50 in assay [7] was 59.8 µM (inactive); in assay [8], 36.6 µM (inactive); in assay [9], 63.7 µM (inactive); in assay [10], 27.8 µM (inactive); in assay [11], 26.1 µM (inactive); in assay [12], 48.3 µM (inactive). In addition, the GI50 was 36 µM (inactive) in assay [13]; 63.4 µM (inactive) in [14]; 9.4 µM (inactive) in assay [15]; 48.9 µM (inactive) in assay [16]; 50.1 µM (inactive) in assay [17]; > 100 µM (inactive) in assay [18]. Besides, the GI50 in [19] was > 100 µM (inactive); in [20], 55.1 µM (inactive).
As for `OC(c1ccc(-c2ccccc2)cc1)C(F)(F)c1nc2ccccc2o1` (stereo not given), the GI50 in [1] was > 100 µM (inactive); in [2], 38.3 µM (inactive); in assay [3], > 68.1 µM (inactive); in assay [4], 25.9 µM (inactive); in assay [5], 36.8 µM (inactive); in assay [6], 18.6 µM (inactive). For the same compound, the GI50 is 15.5 µM (inactive) in [7]; 31.2 µM (inactive) in assay [8]; 37.2 µM (inactive) in assay [9]; 25.9 µM (inactive) in assay [10]; 26.5 µM (inactive) in [11]; 30.7 µM (inactive) in [12]. The GI50 in [13] was 49 µM (inactive); in [14] it was 56.6 µM (inactive); in [15], 27.8 µM (inactive); in [16], 25 µM (inactive); in assay [17], > 74 µM (inactive); in assay [18], 25.1 µM (inactive). Moreover, the values for the GI50 in [19] and in assay [20] were > 100 µM (inactive) and 34.8 µM (inactive), respectively.
Turning to `CC(=O)O[C@H]1C(=O)[C@@]2(C)[C@H]([C@H](OC(=O)c3ccccc3)[C@]3(O)C[C@H](OC(=O)[C@H](O)[C@@H](NC(=O)c4ccc(N(C)C)cc4)c4ccccc4)C(C)=C1C3(C)C)[C@]1(OC(C)=O)CO[C@@H]1C[C@@H]2O`, the GI50 in assay [1] is < 0.005 µM (active); in assay [2], 0.0723 µM (active); in assay [3] it was < 0.005 µM (active); in [4] it was < 0.005 µM (active); in assay [5] it was < 0.005 µM (active); in [6], 2.92 µM (inactive). Moreover, the GI50 was < 0.005 µM (active) in assay [7]; < 0.005 µM (active) in assay [8]; 0.0262 µM (active) in assay [9]; < 0.005 µM (active) in assay [10]; < 0.005 µM (active) in [11]; < 0.005 µM (active) in [12]. Further, the GI50 was < 0.005 µM (active) in [13]; 0.0718 µM (active) in assay [14]; < 0.005 µM (active) in assay [15]; < 0.005 µM (active) in assay [16]; < 0.005 µM (active) in assay [17]; 0.339 µM (active) in assay [18]. In addition, the GI50 in [19] and in [20] was < 0.005 µM (active) in each case.
Take `C=C1CC(Cn2ccc(=O)[nH]c2=O)(c2ccc(-c3ccccc3)cc2)OC1=O` (stereo not given): the GI50 in assay [1] is 0.257 µM (active); in [2], 1.03 µM (active); in assay [3], 0.938 µM (active); in [4], 0.619 µM (active); in [5], 3.61 µM (inactive); in assay [6], 2.1 µM (inactive). Besides, the GI50 in [7] is 0.154 µM (active); in assay [8], 2.4 µM (inactive); in [9] it was 8.09 µM (inactive); in assay [10], 0.995 µM (active); in assay [11], 1.05 µM (active); in [12] it was 12.1 µM (inactive). Further, the GI50 in assay [13] was 16.9 µM (inactive); in assay [14], 1.78 µM (inactive); in [15], 13.6 µM (inactive); in assay [16], 0.836 µM (active); in assay [17] it was 0.441 µM (active); in assay [18], 1.16 µM (inactive). Besides, the GI50 in [19] is 10 µM (inactive); in assay [20], 2.62 µM (inactive).
Consider `CC(=O)c1ccccc1NCC(=O)Nn1cnc2ccc(S(=O)(=O)Nc3ccccc3C(C)=O)cc2c1=O`, for which the GI50 in assay [1], in assay [2], in assay [3], in assay [4], in assay [5] and in assay [6] was > 100 µM (inactive) in each case. For the same compound, the GI50 in assay [7], in [8], in [9], in assay [10], in [11] and in assay [12] was > 100 µM (inactive) in each case. Also, the GI50 in [13], in [14], in assay [15], in assay [16], in assay [17] and in assay [18] was > 100 µM (inactive) in each case. The GI50 in [19] and in assay [20] was > 100 µM (inactive) throughout.
Take `O=C(CC1C=CCS1(=O)=O)NCc1ccccc1` (stereo not given): the GI50 in [1], in assay [2], in [3], in assay [4], in [5] and in assay [6] was > 100 µM (inactive) each time. For the same compound, the GI50 in assay [7], in [8], in assay [9], in assay [10], in [11] and in assay [12] was > 100 µM (inactive) in each case. The GI50 in [13], in assay [14], in assay [15], in [16], in assay [17] and in [18] was > 100 µM (inactive) throughout. The GI50 in [19] and in assay [20] was > 100 µM (inactive) in each case.
